Values quoted from earlier work as cited in US4666715A, “Antibiotic AM-5344-A2 substance and process for the production thereof” (Kitasato Institute, priority 1980, dated 1987).

Experiments:
[1] = known antibiotics, literature
Gram-positive bacterium = conditions: known antibiotics, literature
[2] = known antibiotics, literature; remark: listed apart in the source

Molecule | acidity (neutral) [1] | effective to Gram-positive bacteria (Gram-positive bacterium) | fat solubility [2]
Cerulomycin | neutral | effective | –
Mekemycin | neutral | effective | –
COC(=O)c1cc2cc3cc4cc(CC(=O)O)c(C(=O)/C=C(\O)c5ccccc5O)c(OC)c4c(OC)c3c(O)c2c(=O)o1 [Thermorubin A] | neutral | effective | –
CO[C@H]1[C@@H](O)[C@@H](C)O[C@H](O[C@H]2[C@H](Oc3cccc4c(O)c5c(=O)oc6ccc(C)c7c(=O)oc(c34)c5c67)O[C@H](C)[C@H](O)[C@@H]2O)[C@@H]1O [Chartreusin] | neutral | effective | fat-soluble
